Assays:
[1] = in vivo; conditions: Balb nu/nu, mouse, iv, 10 mg/kg
[2] = in vivo; conditions: Balb nu/nu, mouse, iv, 10 mg/kg; remark: listed apart in the source
[3] = in vivo; conditions: Balb nu/nu, mouse, iv, 10 mg/kg; remark: listed apart in the source
[4] = in vivo; conditions: Balb nu/nu, mouse, plasma, iv, 10 mg/kg

SMILES	clearance [1]	half-life [2]	Vd [3]	AUC(0-inf) [4]
CC(C)Nc1ccc(Oc2cc(O)cc(O)c2-c2cc(C(=O)NC3CCN(C)CC3)no2)cc1	64.8 mL/min/kg	5.44 h	18.4 L/kg	4.8 µM·h
CN1CCC(NC(=O)c2cc(-c3c(O)cc(O)cc3Oc3ccc(N(C)C)cc3)on2)CC1	62.3 mL/min/kg	5.55 h	19.7 L/kg	5.92 µM·h
CN(C)c1ccc(Oc2cc(O)cc(O)c2-c2cc(C(=O)NC3CCN(C4CCC5(CC4)OCCO5)CC3)no2)cc1	29.4 mL/min/kg	5.46 h	4.94 L/kg	7.6 µM·h

— ChEMBL document CHEMBL2439976, “Discovery of NMS-E973 as novel, selective and potent inhibitor of heat shock protein 90 (Hsp90)” (Bioorg Med Chem, 2013)
